Assay results: patent US11260129B2, “Phosphor-containing drug activator, suspension thereof, system containing the suspension, and methods for use” (IMMUNOLIGHT, LLC, priority 2016, dated 2022)

Assays:
[1] = system: CT2A (murine malignant glioma); assay: Cell-Titer-Glo Luminescence Cell Viability Assay, UV activated psoralen (FIG. 14A); format: cell-based; details: psoralen 40 μM; UV light 0, 0.25, 0.5, 1.0 J/cm2; N=4
Source text: (§1) Other assays were used to provide independent complimentary information on cell viability, e.g. Methylene blue staining and ATP-induced Luminescence imaging (Cell-Titer-Glo® Luminescence Cell Viability Assay). The luminescence imaging permitted investigation of the cytotoxicity of psoralen activated directly with a UV lamp, and in the absence of phosphors and x-ray radiation.
(§2) FIG. 14B presents data on CT2A malignant glioma cells, for a range of treatment parameters including variable x-ray dose (0, 0.67 and 1 Gy). phosphor concentration (50 or 100 μg) and psoralen concentration (8-MOP) at 10, 20 and 40 μM respectively. […] N=4 for each cell line at each UV light condition (0, 0.25, 0.5, 1.0 J/cm2). The psoralen concentration was 40 μM. For FIG. 14B, in CT2A cells, the treatment cytotoxicity increases with X-ray dose (0, 0.67 and 1.00 Gy respectively), concentration of 8-MOP psoralen (10, 20 and 40 μM respectively), and phosphor (50 and 100 μg/ml) respectively (p values shown thereon).

[2] = system: KP-B (sarcoma); assay: as above; format: cell-based, murine; details: psoralen 40 μM; UV light 0, 0.25, 0.5, 1.0 J/cm2; N=4
Source text: as §1, §2

[3] = system: 4T1; assay: as above; format: cell-based, murine; details: psoralen 40 μM; UV light 0, 0.25, 0.5, 1.0 J/cm2; N=4
Source text: as §1, §2

[4] = system: 4T1-HER2 cells; assay: Cell viability by Guava flow cytometry (FIG. 13A); format: cell-based, murine; details: UVADEX alone, 1 Gy 80 kVp; p=0.97
Protocol: In-vitro studies were conducted on plated cells following standard procedures. Cells were maintained in RPMI-1640 supplemented with 10% fetal bovine serum and L-glutamine from GIBCO (Grand Island, N.Y.) growing in a humidified atmosphere of 5% CO2. After incubation, cells were trypsinized and plated evenly onto twelve 12-well plates for 24 hours. About 20 minutes prior to irradiation, the 12 wells of each plate were exposed to the following combinations of additives: […] Each plate had 12 wells with three wells for each of the four treatment arms. The plates were then irradiated with x-rays by placing the plate at a known distance from the x-ray source (50 cm). After irradiation, the cells were incubated on the plate for 48 hours prior to performing flow cytometry. For compatibility with 96-well Guava Nexin® assay, the remaining cells were again trypsinized. […] Two primary flow cytometry analyses were used, both determined at 48 hours after treatment. […] The first analysis evaluated was metabolic cell viability (herein referred to as cell viability) calculated from the number of whole cells per well as determined using forward scattering (ESC). […] In FIG. 13A, cell viability after treatment (10 μM 8-MOP equivalent dilution of UVADEX, 50 μg/mL phosphor, 1 Gy of 80 kVp radiation) as determined by Guava flow cytome cytometry is depicted. […]

[5] = system: 4T1-HER2 cells; assay: Methylene blue staining for cell viability; format: cell-based, murine; details: individual components, 1 Gy of 80 kVp x-rays
Protocol: A plate having six (6) wells is subjected to treatment. FIG. 11 is a photographic depiction showing of Methylene Blue stain for cell viability post treatment with X-ray, phosphors and UVADEX. One well (#1) is the control. One well (#2) has phosphor coated with EC and DLC (H100). One well (#3) has phosphor coated with EC (but no DLC).
FIGS. 13A-13D illustrates the efficacy of treatment in-vitro in 4T1-HER2 cells, utilizing a regimen of 1/10-diluted UVADEX (with equivalent of 10 uM 8-MOP), 50 μg/mL phosphor 1 Gy of 80 kVp x-rays. […] Two results from two separate plates are shown, each with identical preparations to investigate reproducibility. Three concentrations of phosphor (25, 50, & 100 μg/mL) were tested with the UVADEX concentration fixed at 1/10 dilution (10 uM 8-MOP). […] In FIGS. 13A-13D, the anti-tumor effects of the treatment and its individual components on 4T1-HER2 cells. […] In FIGS. 13C and 13D, cell viability illustrated by methyl blue staining for identical plates each receiving 1 Gy of 80 kVp x-rays is depicted. […]

[6] = system: 4T1-HER2 cells; assay: Annexin V positivity by flow cytometry (FIGS. 13B, 15, 16); format: cell-based, murine; details: UVADEX alone, with or without x-ray (p 0.90 and 0.09)
Protocol: In-vitro studies were conducted on plated cells following standard procedures. Cells were maintained in RPMI-1640 supplemented with 10% fetal bovine serum and L-glutamine from GIBCO (Grand Island, N.Y.) growing in a humidified atmosphere of 5% CO2. After incubation, cells were trypsinized and plated evenly onto twelve 12-well plates for 24 hours. About 20 minutes prior to irradiation, the 12 wells of each plate were exposed to the following combinations of additives: […] Each plate had 12 wells with three wells for each of the four treatment arms. The plates were then irradiated with x-rays by placing the plate at a known distance from the x-ray source (50 cm). After irradiation, the cells were incubated on the plate for 48 hours prior to performing flow cytometry. […] (after the 48 hour incubation) and plated onto the 96-well plate, Two primary flow cytometry analyses were used, both determined at 48 hours after treatment. […] The first analysis evaluated was metabolic cell viability (herein referred to as cell viability) calculated from the number of whole cells per well as determined using forward scattering (ESC). […] In FIG. 13A, cell viability after treatment (10 μM 8-MOP equivalent dilution of UVADEX, 50 μg/mL phosphor, 1 Gy of 80 kVp radiation) as determined by Guava flow cytome cytometry is depicted. […]

SMILES | viable cells [1] | viable cells [2] | viable cells [3] | effect of addition of radiation on cell viability [4] | effect in methyl blue staining (FIGS. 13C, 13D) [5] | apoptotic activity (Annexin V) [6]
O=c1ccc2cc3ccoc3cc2o1 [psoralen] | reduce viable cells | reduce viable cells | reduce viable cells | – | – | –
COc1c2occc2cc2ccc(=O)oc12 [UVADEX, 8-methoxypsoralen] | – | – | – | no significant effect | little effect | negligible apoptotic activity
